Results published in publication PMC2174402 (Environmental Health Perspectives, 2007).
“And” between values parts separate entries of the source, which are not always exact repeats. Equal entries are not always repeated. Where two headings read alike, the source gives them in different places. Marks after values point to notes of the source that are not given here.

Key:
aromatase (CYP19) = target: T1, aromatase (CYP19) (Homo sapiens, UniProt P11511); experiment: Aromatase activity in JEG-3 choriocarcinoma cells; type: cell-based; conditions: for LOEC, aromatase (inhibited activity) / MOEC, aromatase (inhibited activity) / concentration (range) of significant aromatase inhibition: 18 hr exposure; for Maximum % (maximum down-regulation / maximum inhibition, MI), aromatase: control 10 nM 4-AD set to 100%, at the MOEC
T1 sequence (P11511 1-503): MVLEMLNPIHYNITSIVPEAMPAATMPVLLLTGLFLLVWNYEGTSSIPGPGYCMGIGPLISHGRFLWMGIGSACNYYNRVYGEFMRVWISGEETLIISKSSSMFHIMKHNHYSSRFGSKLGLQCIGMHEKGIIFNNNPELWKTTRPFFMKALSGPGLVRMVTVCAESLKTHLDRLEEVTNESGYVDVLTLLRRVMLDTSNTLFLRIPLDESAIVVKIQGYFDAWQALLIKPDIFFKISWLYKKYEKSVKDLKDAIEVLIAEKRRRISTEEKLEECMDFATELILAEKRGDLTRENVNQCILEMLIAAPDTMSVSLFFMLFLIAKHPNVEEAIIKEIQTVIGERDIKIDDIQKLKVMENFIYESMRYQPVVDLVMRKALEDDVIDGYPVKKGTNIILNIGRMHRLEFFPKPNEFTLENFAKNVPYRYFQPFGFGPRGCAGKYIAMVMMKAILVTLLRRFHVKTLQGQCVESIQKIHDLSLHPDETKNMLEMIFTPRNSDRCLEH

[1] = target: T2, human estrogen receptor (ER) (Homo sapiens, UniProt P03372); experiment: cell-based; type: cell-based; conditions: for LOEC (lowest effect concentration), ER / MOEC (maximal effect concentration), ER: 24 hr
T2 sequence (P03372 1-595): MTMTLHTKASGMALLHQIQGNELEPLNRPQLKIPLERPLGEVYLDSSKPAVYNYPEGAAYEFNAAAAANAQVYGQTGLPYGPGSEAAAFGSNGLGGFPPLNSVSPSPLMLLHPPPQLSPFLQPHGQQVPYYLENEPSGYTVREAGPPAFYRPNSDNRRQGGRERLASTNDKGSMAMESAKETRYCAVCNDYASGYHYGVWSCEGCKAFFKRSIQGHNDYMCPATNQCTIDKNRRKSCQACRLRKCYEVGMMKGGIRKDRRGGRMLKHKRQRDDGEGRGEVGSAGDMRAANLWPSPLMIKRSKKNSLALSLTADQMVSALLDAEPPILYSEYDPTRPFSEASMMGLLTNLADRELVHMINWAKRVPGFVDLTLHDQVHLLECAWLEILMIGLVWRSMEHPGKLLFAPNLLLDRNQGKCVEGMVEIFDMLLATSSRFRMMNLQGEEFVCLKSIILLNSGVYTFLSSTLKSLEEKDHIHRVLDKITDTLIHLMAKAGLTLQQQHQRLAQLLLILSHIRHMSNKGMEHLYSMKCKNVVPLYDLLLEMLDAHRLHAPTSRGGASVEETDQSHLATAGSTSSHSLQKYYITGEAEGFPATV

[2] = target: T3, human androgen receptor (AR) (Homo sapiens, UniProt P10275); experiment: cell-based; type: cell-based
T3 sequence (P10275 1-920): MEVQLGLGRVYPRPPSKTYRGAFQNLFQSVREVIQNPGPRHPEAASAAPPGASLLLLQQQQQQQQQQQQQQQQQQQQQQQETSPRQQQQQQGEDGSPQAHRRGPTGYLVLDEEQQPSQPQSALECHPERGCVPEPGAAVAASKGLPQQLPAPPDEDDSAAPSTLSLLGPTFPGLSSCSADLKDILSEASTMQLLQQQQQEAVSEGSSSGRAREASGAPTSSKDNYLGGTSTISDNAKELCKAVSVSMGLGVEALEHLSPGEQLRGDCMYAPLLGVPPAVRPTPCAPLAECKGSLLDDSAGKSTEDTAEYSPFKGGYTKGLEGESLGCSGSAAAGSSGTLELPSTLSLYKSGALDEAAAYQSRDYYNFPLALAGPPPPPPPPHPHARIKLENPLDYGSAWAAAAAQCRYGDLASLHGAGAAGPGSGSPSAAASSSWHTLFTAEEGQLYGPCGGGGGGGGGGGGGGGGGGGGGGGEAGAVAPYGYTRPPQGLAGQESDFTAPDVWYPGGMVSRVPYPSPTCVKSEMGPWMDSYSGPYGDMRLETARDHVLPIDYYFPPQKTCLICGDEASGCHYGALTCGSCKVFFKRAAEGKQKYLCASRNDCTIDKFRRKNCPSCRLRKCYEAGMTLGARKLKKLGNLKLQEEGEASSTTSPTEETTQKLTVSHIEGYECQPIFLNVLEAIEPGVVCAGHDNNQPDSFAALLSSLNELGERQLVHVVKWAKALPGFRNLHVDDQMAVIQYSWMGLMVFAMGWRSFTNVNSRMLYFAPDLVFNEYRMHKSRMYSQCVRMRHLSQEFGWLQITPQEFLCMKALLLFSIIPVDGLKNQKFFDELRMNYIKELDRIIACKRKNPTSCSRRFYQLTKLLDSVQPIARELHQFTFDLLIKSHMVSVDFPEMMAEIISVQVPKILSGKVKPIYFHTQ

CHO cells = experiment: Cytotoxicity in the AR assay; type: cell-based, Chinese hamster; conditions: for Cytotox (M), AR assay: pSVAR13
Hepa1.12cR cells = experiment: Cell cytotoxicity / proliferation for the AhR-CALUX assay
[3] = target: aryl hydrocarbon receptor (AhR) (Mus musculus, UniProt P30561); experiment: AhR-CALUX
JEG-3 cells = experiment: Cell cytotoxicity for the aromatase assay; type: cell-based, human
[4] = co-exposure with 0.1 nM R1881, CHO cells
[5] = chemical alone, Hepa1.12cR cells

Chain of aryl hydrocarbon receptor (AhR) (P30561 10-805 limits assumed): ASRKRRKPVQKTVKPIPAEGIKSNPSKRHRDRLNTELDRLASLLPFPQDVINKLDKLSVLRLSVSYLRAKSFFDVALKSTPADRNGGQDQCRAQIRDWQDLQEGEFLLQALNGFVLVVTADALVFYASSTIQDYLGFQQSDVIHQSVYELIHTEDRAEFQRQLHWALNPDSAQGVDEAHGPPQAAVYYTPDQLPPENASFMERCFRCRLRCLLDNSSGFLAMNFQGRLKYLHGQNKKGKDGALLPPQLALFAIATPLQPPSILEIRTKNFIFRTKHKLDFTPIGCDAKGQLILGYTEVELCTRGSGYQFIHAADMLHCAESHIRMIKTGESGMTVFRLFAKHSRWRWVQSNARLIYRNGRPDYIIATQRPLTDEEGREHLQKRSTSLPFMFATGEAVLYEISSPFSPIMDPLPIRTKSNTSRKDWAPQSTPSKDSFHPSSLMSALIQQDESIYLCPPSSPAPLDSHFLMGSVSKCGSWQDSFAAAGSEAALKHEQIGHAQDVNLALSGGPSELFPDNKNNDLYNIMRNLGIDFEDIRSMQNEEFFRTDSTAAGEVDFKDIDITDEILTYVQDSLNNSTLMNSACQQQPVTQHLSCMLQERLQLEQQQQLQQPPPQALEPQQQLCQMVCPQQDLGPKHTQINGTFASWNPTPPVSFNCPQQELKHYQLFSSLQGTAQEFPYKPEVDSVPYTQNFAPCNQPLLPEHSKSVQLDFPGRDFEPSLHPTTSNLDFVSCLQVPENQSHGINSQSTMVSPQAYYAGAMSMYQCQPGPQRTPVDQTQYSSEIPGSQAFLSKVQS
Chain of aryl hydrocarbon receptor (AhR) (P53762 whole entry partner): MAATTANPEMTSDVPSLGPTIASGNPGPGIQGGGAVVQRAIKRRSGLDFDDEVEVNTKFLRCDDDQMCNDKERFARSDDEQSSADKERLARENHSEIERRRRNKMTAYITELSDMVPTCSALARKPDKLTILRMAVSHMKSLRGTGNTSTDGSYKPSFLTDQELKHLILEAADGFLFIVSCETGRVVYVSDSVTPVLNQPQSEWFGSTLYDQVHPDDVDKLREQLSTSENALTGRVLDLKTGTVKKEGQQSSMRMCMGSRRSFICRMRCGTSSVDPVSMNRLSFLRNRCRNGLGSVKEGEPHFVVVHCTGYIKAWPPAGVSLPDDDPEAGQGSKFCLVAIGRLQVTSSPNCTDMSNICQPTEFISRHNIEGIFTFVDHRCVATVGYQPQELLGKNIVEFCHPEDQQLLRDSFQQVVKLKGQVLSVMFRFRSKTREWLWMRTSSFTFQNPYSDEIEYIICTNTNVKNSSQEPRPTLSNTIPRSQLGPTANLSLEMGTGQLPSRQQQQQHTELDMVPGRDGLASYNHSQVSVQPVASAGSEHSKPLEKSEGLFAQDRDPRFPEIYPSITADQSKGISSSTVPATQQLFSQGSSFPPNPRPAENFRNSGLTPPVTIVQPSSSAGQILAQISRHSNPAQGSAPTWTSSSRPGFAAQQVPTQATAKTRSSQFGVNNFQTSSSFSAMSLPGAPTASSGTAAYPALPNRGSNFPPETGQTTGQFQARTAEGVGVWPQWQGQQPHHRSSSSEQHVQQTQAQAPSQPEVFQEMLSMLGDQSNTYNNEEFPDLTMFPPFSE

C[C@]12CCC(=O)C(O)=C1CC[C@@H]1[C@@H]2CC[C@]2(C)C(=O)CC[C@@H]12 [4-AOD, 4-androsten-4-ol-3,17-dione, reference compound]
EC50 (aromatase (CYP19)): 6 nM
IC50 (aromatase (CYP19)): 6 nM
EC100 of aromatase inhibitor control (aromatase (CYP19); JEG-3 cells): 10 µM
LOEC, aromatase (inhibited activity) (aromatase (CYP19); JEG-3 cells): 1 nM
MOEC, aromatase (inhibited activity) (aromatase (CYP19); JEG-3 cells): 100 µM
REP (relative potency), aromatase (aromatase (CYP19); REP-aromatase = LOEC 4-AOD/LOEC test compound): 1
Maximum % (maximum down-regulation / maximum inhibition, MI), aromatase (aromatase (CYP19)): 100%

CC(C)(c1ccc(O)cc1)c1ccc(O)cc1 [BPA, Bisphenol A]
response on co-treatment with 25 pM E2 at 50 μM [1]: significant decreased response
concentration range of ER-mediated (estrogenic) response ([1]; chemical alone, MVLN cells): 10^−8 to 5 × 10^−5 M
LOEC (lowest effect concentration), ER ([1]; chemical alone, MVLN cells): 100 nM
MOEC (maximal effect concentration), ER ([1]; chemical alone, MVLN cells): 10 µM
IC50 [2]: 1000 nM
concentration range of significant antiandrogenic effect ([2]; co-exposure with 0.1 nM R1881): 0.60 to 20 µM
LOEC, AR (inhibited activity) [2, 4]: 600 nM
MOEC, AR (inhibited activity) [2, 4]: 20 µM
Maximum % (maximum down-regulation / maximum inhibition, MI), AR ([2]; control inducer 0.1 nM R1881 set to 100%): 90%
LOEC, aromatase (inhibited activity) (aromatase (CYP19); JEG-3 cells): 100000 nM
MOEC, aromatase (inhibited activity) (aromatase (CYP19); JEG-3 cells): 100 µM
concentration (range) of significant aromatase inhibition (aromatase (CYP19); JEG-3 cells): 10^−4 M
Maximum % (maximum down-regulation / maximum inhibition, MI), aromatase (aromatase (CYP19)): 59%
concentrations of cytotoxicity, AR assay (CHO cells): > 40 µM
Cytotox (M), AR assay (CHO cells): > 4e-05 M
Cytotox (M), AhR assay (Hepa1.12cR cells): > 10^−4 M
concentration of decreased TCDD-induced AhR activity [3]: 10^−4 M
concentration (range) of decreased AhR activity, alone ([3]; chemical alone): 5 × 10^−5 to 10^−4 M
LOEC, AhR (inhibited activity) ([3]; inhibited activity): 5 × 10^−5 ^d M

Clc1cc2c(cc1Cl)Oc1cc(Cl)c(Cl)cc1O2 [TCDD, 2,3,7,8-tetrachlorodibenzo-p-dioxin, reference compound]
AhR-CALUX activity relative to solvent control ([3]; 60 pM TCDD alone, 0.1% DMSO set to 1, mean ± SD): 14.84 ± 6.26 and 13.89 ± 7.32
LOEC, AhR (increased activity) [3, 5]: 0.002 nM
MOEC, AhR (increased activity) [3, 5]: 10 nM
REP (relative potency), AhR ([3]; relative to TCDD): 1

CCCCCCCCCc1ccc(O)cc1 [nNP, 4-n-nonylphenol]
EC50 [1]: 8900 nM
concentration giving further increase of the 25 pM E2-induced activity level [1]: 5 × 10^−6 M
LOEC (lowest effect concentration), ER ([1]; chemical alone, MVLN cells): 10 nM
MOEC (maximal effect concentration), ER ([1]; chemical alone, MVLN cells): 10 µM
LOEC, aromatase (inhibited activity) (aromatase (CYP19); JEG-3 cells): 1 nM
MOEC, aromatase (inhibited activity) (aromatase (CYP19); JEG-3 cells): 10 µM
concentration (range) of significant aromatase inhibition (aromatase (CYP19); JEG-3 cells): 10^−9–10^−5 M
Maximum % (maximum down-regulation / maximum inhibition, MI), aromatase (aromatase (CYP19)): 71%
concentrations of cytotoxicity, AR assay (CHO cells): > 40 µM
Cytotox (M), AR assay (CHO cells): > 4e-05 M
Cytotox (M), ER assay (MVLN cells): 2.5e-05 M
concentration at which cytotoxicity was observed, ER assay (MVLN cells): 25 µM
LOEC, AhR (increased activity) [3, 5]: 50 nM
concentration of decreased TCDD-induced AhR activity ([3]; co-treatment with TCDD-EC50 (60 pM)): 10^−4 M

CCCCCCCCc1ccc(O)cc1 [nOP, 4-n-octylphenol]
Cytotox (M), AR assay (CHO cells): > 2e-05 M
Cytotox (M), aromatase assay (JEG-3 cells): 10^−4 M
Cytotox (M), ER assay (MVLN cells): 5e-05 M
Cytotox (M), AhR assay (Hepa1.12cR cells): > 10^−4 M
